# Results as given in ChEMBL document CHEMBL2440076, “New triarylpyrazoles as broad-spectrum anticancer agents: design, synthesis, and biological evaluation” (Eur J Med Chem, 2013).
# Experiments:
# Format in all cases: functional
# [1] = Growth inhibition of human HCC2998 cells assessed as cell growth at 5X10'-9 M after 48 hrs by sulforhodamine B assay; settings: HCC 2998, 48 h, read-out: Activity
# SF-268 = assay: Growth inhibition of human SF268 cells assessed as cell growth at 5X10'-5 M after 48 hrs by sulforhodamine B assay; settings: SF-268, 48 h, read-out: Activity
# KM12 = assay: Growth inhibition of human KM12 cells assessed as cell growth at 5X10'-5 M after 48 hrs by sulforhodamine B assay; settings: KM12, 48 h, read-out: Activity
# NCI-H460 = assay: Growth inhibition of human NCI-H460 cells assessed as cell growth at 5X10'-5 M after 48 hrs by sulforhodamine B assay; settings: NCI-H460, 48 h, read-out: Activity
# [2] = Growth inhibition of human Hs 578T cells assessed as cell growth at 5X10'-6 M after 48 hrs by sulforhodamine B assay; settings: read-out: Activity
# PC-3 [3] = assay: Growth inhibition of human PC3 cells assessed as cell growth at 5X10'-6 M after 48 hrs by sulforhodamine B assay; settings: PC-3, 48 h, read-out: Activity
# RPMI-8226 = assay: Growth inhibition of human RPMI8226 cells assessed as cell growth at 5X10'-9 M after 48 hrs by sulforhodamine B assay; settings: RPMI-8226, 48 h, read-out: Activity
# SR = assay: Growth inhibition of human SR cells assessed as cell growth at 5X10'-6 M after 48 hrs by sulforhodamine B assay; settings: read-out: Activity
# K562 = assay: Growth inhibition of human K562 cells assessed as cell growth at 5X10'-6 M after 48 hrs by sulforhodamine B assay; settings: K562, 48 h, read-out: Activity
# SN12C = assay: Growth inhibition of human SN12C cells assessed as cell growth at 5X10'-7 M after 48 hrs by sulforhodamine B assay; settings: read-out: Activity
# IGROV-1 [4] = assay: Growth inhibition of human IGROV1 cells assessed as cell growth at 5X10'-7 M after 48 hrs by sulforhodamine B assay; settings: IGROV-1, 48 h, read-out: Activity
# SK-MEL-5 [5] = assay: Growth inhibition of human SK-MEL-5 cells assessed as cell growth at 5X10'-7 M after 48 hrs by sulforhodamine B assay; settings: SK-MEL-5, 48 h, read-out: Activity
# UACC-257 [6] = assay: Growth inhibition of human UACC257 cells assessed as cell growth at 5X10'-7 M after 48 hrs by sulforhodamine B assay; settings: UACC-257, 48 h, read-out: Activity
# SNB-75 = assay: Growth inhibition of human SNB75 cells assessed as cell growth at 5X10'-7 M after 48 hrs by sulforhodamine B assay; settings: SNB-75, 48 h, read-out: Activity
# HCT-116 = assay: Growth inhibition of human HCT116 cells assessed as cell growth at 5X10'-7 M after 48 hrs by sulforhodamine B assay; settings: HCT-116, 48 h, read-out: Activity
# [7] = Growth inhibition of human HCC2998 cells assessed as cell growth at 5X10'-7 M after 48 hrs by sulforhodamine B assay; settings: HCC 2998, 48 h, read-out: Activity
# COLO 205 = assay: Growth inhibition of human COLO205 cells assessed as cell growth at 5X10'-7 M after 48 hrs by sulforhodamine B assay; settings: COLO 205, 48 h, read-out: Activity
# NCI-H322M = assay: Growth inhibition of human NCI-H322M cells assessed as cell growth at 5X10'-7 M after 48 hrs by sulforhodamine B assay; settings: read-out: Activity
# [8] = Growth inhibition of human Hs 578T cells assessed as cell growth at 5X10'-8 M after 48 hrs by sulforhodamine B assay; settings: read-out: Activity
# PC-3 [9] = assay: Growth inhibition of human PC3 cells assessed as cell growth at 5X10'-8 M after 48 hrs by sulforhodamine B assay; settings: PC-3, 48 h, read-out: Activity
# IGROV-1 [10] = assay: Growth inhibition of human IGROV1 cells assessed as cell growth at 5X10'-8 M after 48 hrs by sulforhodamine B assay; settings: IGROV-1, 48 h, read-out: Activity
# UACC-62 [11] = assay: Growth inhibition of human UACC62 cells assessed as cell growth at 5X10'-8 M after 48 hrs by sulforhodamine B assay; settings: UACC-62, 48 h, read-out: Activity
# M14 = assay: Growth inhibition of human M14 cells assessed as cell growth at 5X10'-8 M after 48 hrs by sulforhodamine B assay; settings: M14, 48 h, read-out: Activity
# SNB-19 = assay: Growth inhibition of human SNB19 cells assessed as cell growth at 5X10'-8 M after 48 hrs by sulforhodamine B assay; settings: SNB-19, 48 h, read-out: Activity
# SW-620 = assay: Growth inhibition of human SW620 cells assessed as cell growth at 5X10'-8 M after 48 hrs by sulforhodamine B assay; settings: SW-620, 48 h, read-out: Activity
# MCF7 = assay: Growth inhibition of human MCF7 cells assessed as cell growth at 5X10'-5 M after 48 hrs by sulforhodamine B assay; settings: MCF7, 48 h, read-out: Activity
# OVCAR-3 = assay: Growth inhibition of human OVCAR3 cells assessed as cell growth at 5X10'-5 M after 48 hrs by sulforhodamine B assay; settings: OVCAR-3, 48 h, read-out: Activity
# UACC-257 [12] = assay: Growth inhibition of human UACC257 cells assessed as cell growth at 5X10'-5 M after 48 hrs by sulforhodamine B assay; settings: UACC-257, 48 h, read-out: Activity
# NCI-H23 = assay: Growth inhibition of human NCI-H23 cells assessed as cell growth at 5X10'-8 M after 48 hrs by sulforhodamine B assay; settings: NCI-H23, 48 h, read-out: Activity
# [13] = Growth inhibition of human Hs 578T cells assessed as cell growth at 5X10'-9 M after 48 hrs by sulforhodamine B assay; settings: read-out: Activity
# A498 = assay: Growth inhibition of human A498 cells assessed as cell growth at 5X10'-9 M after 48 hrs by sulforhodamine B assay; settings: A498, 48 h, read-out: Activity
# [14] = Growth inhibition of human NCI-ADR-RES cells assessed as cell growth at 5X10'-9 M after 48 hrs by sulforhodamine B assay; settings: read-out: Activity
# UACC-62 [15] = assay: Growth inhibition of human UACC62 cells assessed as cell growth at 5X10'-9 M after 48 hrs by sulforhodamine B assay; settings: UACC-62, 48 h, read-out: Activity
# SK-MEL-5 [16] = assay: Growth inhibition of human SK-MEL-5 cells assessed as cell growth at 5X10'-9 M after 48 hrs by sulforhodamine B assay; settings: SK-MEL-5, 48 h, read-out: Activity
# SK-MEL-2 = assay: Growth inhibition of human SK-MEL-2 cells assessed as cell growth at 5X10'-9 M after 48 hrs by sulforhodamine B assay; settings: SK-MEL-2, 48 h, read-out: Activity
# MDA-MB-435 = assay: Growth inhibition of human MDA-MB-435 cells assessed as cell growth at 5X10'-9 M after 48 hrs by sulforhodamine B assay; settings: MDA-MB-435, 48 h, read-out: Activity
# Malme-3M = assay: Growth inhibition of human MALME-3M cells assessed as cell growth at 5X10'-9 M after 48 hrs by sulforhodamine B assay; settings: read-out: Activity
Structure (SMILES),growth at 0.005 µM [1] [%],growth at 50 µM (SF-268) [%],growth at 50 µM (KM12) [%],growth at 50 µM (NCI-H460) [%],growth at 5 µM [2] [%],growth at 5 µM (PC-3 [3]) [%],growth at 0.005 µM (RPMI-8226) [%],growth at 5 µM (SR) [%],growth at 5 µM (K562) [%],growth at 0.5 µM (SN12C) [%],growth at 0.5 µM (IGROV-1 [4]) [%],growth at 0.5 µM (SK-MEL-5 [5]) [%],growth at 0.5 µM (UACC-257 [6]) [%],growth at 0.5 µM (SNB-75) [%],growth at 0.5 µM (HCT-116) [%],growth at 0.5 µM [7] [%],growth at 0.5 µM (COLO 205) [%],growth at 0.5 µM (NCI-H322M) [%],growth at 0.05 µM [8] [%],growth at 0.05 µM (PC-3 [9]) [%],other results
COc1cc(-c2nn(-c3cccc(NC(=O)Nc4ccc(Cl)c(Cl)c4)c3)cc2-c2ccncc2)ccc1Cl,101,-5,-50,2,11,-17,96,-26,5,82,90,78,83,74,78,97,102,89,94,95,growth at 0.05 µM (IGROV-1 [10]): 103%; growth at 0.05 µM (UACC-62 [11]): 94%; growth at 0.05 µM (M14): 100%; growth at 0.05 µM (SNB-19): 95%; growth at 0.05 µM (SW-620): 102%; growth at 50 µM (MCF7): 3%; growth at 50 µM (OVCAR-3): -50%; growth at 50 µM (UACC-257 [12]): -30%; growth at 0.05 µM (NCI-H23): 101%; growth at 0.005 µM [13]: 99%; growth at 0.005 µM (A498): 87%; growth at 0.005 µM [14]: 104%; growth at 0.005 µM (UACC-62 [15]): 98%; growth at 0.005 µM (SK-MEL-5 [16]): 98%; growth at 0.005 µM (SK-MEL-2): 109%; growth at 0.005 µM (MDA-MB-435): 97%; growth at 0.005 µM (Malme-3M): 103%
COc1cc(-c2nn(-c3cccc(NC(=O)Nc4cccc(C(F)(F)F)c4)c3)cc2-c2ccncc2)ccc1Cl,100,-34,-47,-35,4,-19,98,-24,3,80,85,78,83,81,66,94,93,82,96,90,growth at 0.05 µM (IGROV-1 [10]): 96%; growth at 0.05 µM (UACC-62 [11]): 94%; growth at 0.05 µM (M14): 97%; growth at 0.05 µM (SNB-19): 97%; growth at 0.05 µM (SW-620): 94%; growth at 50 µM (MCF7): -8%; growth at 50 µM (OVCAR-3): -54%; growth at 50 µM (UACC-257 [12]): -87%; growth at 0.05 µM (NCI-H23): 95%; growth at 0.005 µM [13]: 96%; growth at 0.005 µM (A498): 92%; growth at 0.005 µM [14]: 99%; growth at 0.005 µM (UACC-62 [15]): 95%; growth at 0.005 µM (SK-MEL-5 [16]): 99%; growth at 0.005 µM (SK-MEL-2): 101%; growth at 0.005 µM (MDA-MB-435): 95%; growth at 0.005 µM (Malme-3M): 86%
O=C(Nc1cccc(-n2cc(-c3ccncc3)c(-c3ccc(Cl)c(O)c3)n2)c1)c1ccc(N2CCOCC2)c(C(F)(F)F)c1,95,30,1,-10,25,29,98,18,11,97,112,93,90,72,99,108,111,114,87,96,growth at 0.05 µM (IGROV-1 [10]): 95%; growth at 0.05 µM (UACC-62 [11]): 100%; growth at 0.05 µM (M14): 94%; growth at 0.05 µM (SNB-19): 104%; growth at 0.05 µM (SW-620): 104%; growth at 50 µM (MCF7): 12%; growth at 50 µM (OVCAR-3): 11%; growth at 50 µM (UACC-257 [12]): -9%; growth at 0.05 µM (NCI-H23): 93%; growth at 0.005 µM [13]: 92%; growth at 0.005 µM (A498): 92%; growth at 0.005 µM [14]: 97%; growth at 0.005 µM (UACC-62 [15]): 98%; growth at 0.005 µM (SK-MEL-5 [16]): 101%; growth at 0.005 µM (SK-MEL-2): 96%; growth at 0.005 µM (MDA-MB-435): 93%; growth at 0.005 µM (Malme-3M): 88%
